Measured values taken from patent publication US11452717B2, “Small molecule activators of nicotinamide phosphoribosyltransferase (NAMPT) and uses thereof” (Sanford Burnham Prebys Medical Discovery Institute, priority 2017, dated 2022).

Biological target: NAMPT enzyme (Homo sapiens (Human), UniProt P43490)
Test: Enzyme Assay and NMN Detection (NAMPT reaction, fluorescence detection of NMN)
Assay type: biochemical
Details: Table B-1; NAMPT activation, NMN formation
In short: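 NMN formed was read at ex380/em460 after acetophenone/KOH derivatization and formic acid addition, using a same-day calibration curve. Final conditions: NAMPT 16 nM, nicotinamide 5 uM, PRPP 6.25 uM, ATP 120 uM, pyrophosphatase 0.04 U/ml, pH 7.5 HEPES buffer with MgCl2 and TCEP, 2 h at room temperature.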

NAMPT enzyme, sequence (P43490 whole entry, species assumed): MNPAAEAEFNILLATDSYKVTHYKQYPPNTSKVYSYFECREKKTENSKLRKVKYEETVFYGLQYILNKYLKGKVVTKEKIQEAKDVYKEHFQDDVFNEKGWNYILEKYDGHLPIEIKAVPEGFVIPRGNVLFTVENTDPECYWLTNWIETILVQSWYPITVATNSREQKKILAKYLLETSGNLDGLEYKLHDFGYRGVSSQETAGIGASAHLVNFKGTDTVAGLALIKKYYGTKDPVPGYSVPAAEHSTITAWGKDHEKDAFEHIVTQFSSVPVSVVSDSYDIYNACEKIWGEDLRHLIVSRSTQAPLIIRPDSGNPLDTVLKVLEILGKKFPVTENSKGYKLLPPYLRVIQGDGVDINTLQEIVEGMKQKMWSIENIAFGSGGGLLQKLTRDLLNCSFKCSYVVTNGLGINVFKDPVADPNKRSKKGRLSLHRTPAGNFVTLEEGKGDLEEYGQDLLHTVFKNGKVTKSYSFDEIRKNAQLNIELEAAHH

Row | Structure (SMILES) | EC50
1 | O=C(NCc1cn[nH]c1)Nc1ccc(S(=O)(=O)NCc2ccccc2Cl)cc1 [N-(2-Chloro-benzyl)-4-[3-(1H-pyrazol-4-ylmethyl)-ureido]-benzenesulfonamide] | < 100 nM

Same assay, conditions: Table B-2; NAMPT activation, NMN formation

Row | Structure (SMILES) | EC50
2 | O=C(NCc1ccncc1)Nc1ccc(S(=O)(=O)N(Cc2ccccc2)Cc2ccccc2)cc1 [N,N-Dibenzyl-4-(3-pyridin-4-ylmethyl-ureido)-benzenesulfonamide] | > 20000 nM
3 | CN(C)S(=O)(=O)c1ccc(NC(=O)NCc2ccncc2)cc1 [N,N-Dimethyl-4-(3-pyridin-4-ylmethy-ureido)-benzenesulfonamide] | 2000 to 5000 nM
4 | CCN(CC)C(=O)c1ccc(NC(=O)NCc2ccncc2)cc1 [N,N-diethyl-4-(3-(pyridin-4-ylmethyl)ureido)benzamide] | > 20000 nM
5 | CN(C)C(=O)c1ccc(NC(=O)NCc2ccncc2)cc1 [N,N-dimethyl-4-(3-(pyridin-4-ylmethyl)ureido)benzamide] | > 20000 nM
6 | CN(C)CCNC(=O)c1ccc(NC(=O)NCc2ccncc2)cc1 [N-(2-(dimethylamino)ethyl)-4-(3-(pyridin-4-ylmethyl)ureido)benzamide] | 5000 to 20000 nM

Now from value to compound:

Row | EC50 | Structure (SMILES)
7 | 100 to 2000 nM | COC(=O)c1ccc(NC(=O)c2ccc(NC(=O)NCc3ccncc3)cc2)cc1 [Methyl 4-(4-(3-(pyridin-4-ylmethyl)ureido)benzamido)benzoate]
8 | 100 to 2000 nM | CN(C)S(=O)(=O)c1ccc(CNS(=O)(=O)c2ccc(NC(=O)NCc3ccncc3)cc2)cc1 [N,N-dimethyl-4-((4-(3-(pyridin-4-ylmethyl)ureido)phenylsulfonamido)methyl)benzenesulfonamide]
9 | 100 to 2000 nM | CC(NS(=O)(=O)c1ccc(NC(=O)NCc2ccncc2)cc1)C1CCC1 (centres unmarked) [N-(1-Cyclobutyl-ethyl)-4-(3-pyridin-4-ylmethyl-ureido)-benzenesulfonamide]
10 | 100 to 2000 nM | CCN1CCCC1CNS(=O)(=O)c1ccc(NC(=O)NCc2ccncc2)cc1 (centres unmarked) [N-(1-Ethyl-pyrrolidin-2-ylmethyl)-4-(3-pyridin-4-ylmethyl-ureido)-benzenesulfonamide]
11 | 2000 to 5000 nM | CN1CCC(NS(=O)(=O)c2ccc(NC(=O)NCc3ccncc3)cc2)C1 (centres unmarked) [N-(1-Methyl-pyrrolidin-3-yl)-4-(3-pyridin-4-ylmethyl-ureido)-benzenesulfonamide]
12 | 100 to 2000 nM | CC(NS(=O)(=O)c1ccc(NC(=O)NCc2ccncc2)cc1)c1ccccc1 (centres unmarked) [N-(1-phenylethyl)-4-(3-(pyridin-4-ylmethyl)ureido)benzenesulfonamide]
13 | 100 to 2000 nM | O=C(NCc1ccncc1)Nc1ccc(C(=O)Nc2ccc3c(c2)OCCO3)cc1 [N-(2,3-dihydrobenzo[b][1,4]dioxin-6-yl)-4-(3-(pyridin-4-ylmethyl)ureido)benzamide]
14 | 100 to 2000 nM | CN(C)c1ccccc1NC(=O)c1ccc(NC(=O)NCc2ccncc2)cc1 [N-(2-(dimethylamino)phenyl)-4-(3-(pyridin-4-ylmethyl)ureido)benzamide]
15 | 2000 to 5000 nM | O=C(NCc1ccncc1)Nc1ccc(C(=O)NCCN2CCCCC2)cc1 [N-(2-(piperidin-1-yl)ethyl)-4-(3-(pyridin-4-ylmethyl)ureido)benzamide]
16 | < 100 nM | O=C(NCc1ccncc1)Nc1ccc(S(=O)(=O)NCc2ccccc2Cl)cc1 [N-(2-Chloro-benzyl)-4-(3-pyridin-4-ylmethyl-ureido)-benzenesulfonamide]
17 | < 100 nM | CN(Cc1ccccc1Cl)S(=O)(=O)c1ccc(NC(=O)NCc2ccncc2)cc1 [N-(2-Chloro-benzyl)-N-methyl-4-(3-pyridin-4-ylmethyl-ureido)-benzenesulfonamide]

Same assay, conditions: Table B-3; NAMPT activation, NMN formation

Row | Structure (SMILES) | EC50
18 | CCOC(=O)c1ccc(NC(=O)NCc2ccnc3ccccc23)cc1 [Ethyl 4-(3-(quinolin-4-ylmethyl)ureido)benzoate] | > 20000 nM
19 | CCOC(=O)c1ccc(NC(=O)NCc2ccccc2)cc1 [Ethyl 4-(3-benzylureido)benzoate] | > 20000 nM
20 | COC(=O)c1ccc(N(C)C(=O)NCc2ccncc2)cc1 [Methyl 4-(1-methyl-3-(pyridin-4-ylmethyl)ureido)benzoate] | > 20000 nM
